ChEMBL document CHEMBL4265901, “Eupatilin inhibits angiogenesis-mediated human hepatocellular metastasis by reducing MMP-2 and VEGF signaling” (Bioorg Med Chem Lett, 2018)
Active and inactive are the calls of the source. No cut-off for these calls is given here.

Tests used:
[1] = target: RAC-alpha serine/threonine-protein kinase (Homo sapiens) (UniProt P31749); test: Inhibition of Akt phosphorylation in HUVEC at 6.25 uM after 24 hrs by Western blot analysis relative to control; type: cell-based
RAC-alpha serine/threonine-protein kinase (Homo sapiens), sequence (P31749 whole entry): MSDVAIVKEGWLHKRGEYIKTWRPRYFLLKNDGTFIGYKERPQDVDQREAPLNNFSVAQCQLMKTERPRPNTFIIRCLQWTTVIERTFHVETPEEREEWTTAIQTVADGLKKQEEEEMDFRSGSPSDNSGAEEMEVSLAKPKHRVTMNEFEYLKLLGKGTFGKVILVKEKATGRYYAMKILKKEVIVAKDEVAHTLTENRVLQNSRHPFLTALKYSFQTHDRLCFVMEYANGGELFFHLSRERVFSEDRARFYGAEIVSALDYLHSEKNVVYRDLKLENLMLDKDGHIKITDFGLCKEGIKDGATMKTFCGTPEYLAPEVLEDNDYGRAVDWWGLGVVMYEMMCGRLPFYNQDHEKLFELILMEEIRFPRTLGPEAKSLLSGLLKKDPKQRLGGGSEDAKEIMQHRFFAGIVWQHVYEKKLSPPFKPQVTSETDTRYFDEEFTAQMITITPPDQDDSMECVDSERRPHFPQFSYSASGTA

HUVEC [2] = test: Downregulation of HIF-1 alpha protein level in HUVEC at 3.125 uM after 24 hrs by Western blot analysis relative to control; type: functional, Homo sapiens
HUVEC [3] = test: Antiangiogenic activity in HUVEC assessed as inhibition of tube formation at 3.125 uM after 24 hrs by light microscopic analysis relative to control; type: functional; conditions: Homo sapiens
SNU-182 [4] = test: Downregulation of MMP2 mRNA levels in human SNU182 cells at 20 uM after 24 hrs by quantitative real-time qPCR analysis; type: functional, cell-based
HUVEC [5] = test: Downregulation of VEGF protein level in HUVEC at 3.125 uM after 24 hrs by Western blot analysis relative to control; type: functional, Homo sapiens
HepG2 [6] = test: Antiproliferative activity against human HepG2 cells after 24 hrs by MTT assay; type: functional, cell-based
SNU-182 [7] = test: Downregulation of MMP9 mRNA levels in human SNU182 cells at 20 uM after 24 hrs by quantitative real-time qPCR analysis; type: functional, cell-based
[8] = target: RAC-alpha serine/threonine-protein kinase (Homo sapiens) (UniProt P31749); test: Inhibition of Akt phosphorylation in HUVEC at 3.125 uM after 24 hrs by Western blot analysis relative to control; type: cell-based
HepG2 [9] = test: Antiproliferative activity against human HepG2 cells at 200 uM after 24 hrs by MTT assay; type: functional
HUVEC [10] = test: Downregulation of HIF-1 alpha protein level in HUVEC at 6.25 uM after 24 hrs by Western blot analysis relative to control; type: functional, Homo sapiens
HUVEC [11] = test: Cytotoxicity activity against HUVEC assessed as decrease in cell viability up to 6.25 uM after 24 hrs by MTT assay; type: cell-based; conditions: human
SNU-182 [12] = test: Cytotoxicity against human SNU182 cells assessed as decrease in cell viability up to 20 uM after 48 hrs by MTT assay; type: cell-based; conditions: snu-182, 48 h
HUVEC [13] = test: Antiangiogenic activity in HUVEC assessed as inhibition of tube formation at 6.25 uM after 24 hrs by light microscopic analysis relative to control; type: functional; conditions: Homo sapiens
HUVEC [14] = test: Cytotoxicity activity against HUVEC assessed as decrease in cell viability at 12.5 to 100 uM after 24 hrs by MTT assay; type: cell-based; conditions: human
HUVEC [15] = test: Downregulation of VEGF level in HUVEC at 6.25 uM after 24 hrs by Western blot analysis relative to control; type: functional, Homo sapiens
HUVEC [16] = test: Antiangiogenic activity in HUVEC assessed as inhibition of tube formation at 1.6 uM after 24 hrs by light microscopic analysis relative to control; type: functional; conditions: Homo sapiens

Structure (SMILES)	fold change (FC) [1]	fold change (FC) (HUVEC [2])	inhibition at 3.125 µM (HUVEC [3])	Activity (SNU-182 [4])	fold change (FC) (HUVEC [5])	Activity (HepG2 [6])	Activity (SNU-182 [7])	fold change (FC) [8]	Activity (HepG2 [9])	fold change (FC) (HUVEC [10])	Activity (HUVEC [11])	Activity (SNU-182 [12])	inhibition at 6.25 µM (HUVEC [13])	Activity (HUVEC [14])	Activity (HUVEC [15])	inhibition at 1.6 µM (HUVEC [16])
COc1ccc(-c2cc(=O)c3c(O)c(OC)c(O)cc3o2)cc1OC [EUPATILIN]	0.8	0.83	14.1%	Active	0.88	Dose-dependent effect	inactive	0.82	43.24%	0.84	Non-Toxic	Non-Toxic	24.8%	Toxic	31%	–
CC(C)=CC[C@@H](O)C1=CC(=O)c2c(O)ccc(O)c2C1=O [SHIKONIN]	–	–	–	–	–	–	–	–	–	–	–	–	–	–	–	31.8%
